Source: PMC7395176, “Retromer stabilization results in neuroprotection in a model of Amyotrophic Lateral Sclerosis” (Nature Communications, 2020)

Experiments:
GM130 = assay: Golgi apparatus (GM130) in MNs of treated G93A mice; assay type: in vivo; settings: 10 mg/kg, day 100
Excerpt: Ubiquitinated inclusions accumulate in MNs from sALS and fALS patients, and in ALS mice[51]. We characterized poly-ubiquitinated proteins in lumbar SCs protein extracts by 10% denaturating PAGE. Protein extracts from Neuro2a cells treated with the proteasome inhibitor Bortezomib (BTZ), able to increase poly-ubiquitination, were used as an experimental control[52] (Fig. 7a). […] We next scored ubiquitin MFI levels in ventral horn MNs of G93A mice. […] (Fig. 7c and d). We next scored the Golgi apparatus in G93A mice by labeling lumbar sections for the cis-Golgi matrix protein GM130[54]. […] (Fig. 7e).
Sections from mice or glass covers containing cells were washed three times in PBS 1× (Lonza, 5 min each), and incubated in the following blocking mix: PBS 1×/FBS 10% (Invitrogen), BSA 1 mg/mL (Sigma–Aldrich), TritonX100 0.1% (Sigma Aldrich), for 1 h at room temperature. Antibodies were diluted in blocking mix and incubated at +4 °C overnight according manufacturer’s instructions. The following day, sections were rinsed in PBS and fluorescent secondary antibodies—i.e. never deriving from the species from which the primary antibodies are derived- (Alexafluor conjugated) diluted in blocking mix, were used according to the manufacturer’s instructions. Slides were incubated in Hoechst 33342 (Sigma–Aldrich) for nuclei counterstaining. […]

VPS29-VPS35 heterodimer = VPS29-VPS35 heterodimer (Homo sapiens, UniProt Q96QK1+Q9UBQ0); assay: STD-NMR and WaterLogsy-NMR ligand-based binding experiments; settings: 2a 500 μM, VPS29-VPS35 10 μM
Description: We used a ligand-based NMR approach to localize the binding between compound 2a and the VPS29-VPS35 heterodimer. These techniques provide binding information without requiring any isotopic labeling of the proteins. Particularly, Saturation Transfer Difference NMR (STD-NMR)[32] and WaterLogsy-NMR (WL-NMR)[33] experiments were acquired in buffer solutions containing a large excess of compound 2a (500μM) with respect to VPS29-VPS35 (10 μM). Both STD-NMR and WL-NMR focus on the NMR signals of the ligand and utilize the magnetization transfer by the Nuclear Overhauser Effect (NOE) between protein and ligand. STD-NMR experiments are carried out by subtraction of a 1D ^1H spectrum where the protein protons are selectively irradiated (on-resonance spectrum) from a spectrum in which the protein is not saturated (off-resonance spectrum).
WL-NMR entails magnetization transfer to the ligand from either bulk water via a macromolecule, and/or the exchangeable protons and the water molecules present in the binding site. Positive peaks for proton resonances of the ligand in the WL-NMR spectrum are observed for binders in presence of the protein. […] As negative control, STD-NMR and WL-NMR experiments were performed for compound 2a in absence of the heterodimer. The absence of proton signals in the aromatic zone and the presence of negative signals in STD-NMR (Fig. 2k) and WL-NMR (Fig. 2l) spectra, respectively, confirms the binding between compound 2a and the VPS29-VPS35 heterodimer. Unfortunately, STD- and WL-NMR competition experiments between 2a and R55/1 could not be performed since the latter compound was not stable in our experimental conditions.
NMR spectra were acquired at 298K on a Bruker Avance NEO 700 MHz spectrometer equipped with a Z-gradient cryoprobe. The spectra were processed with the Bruker TOPSPIN 4.0.5 software packages. […] 1D ^1H spectra were recorded using a 1 s presaturation pulse with a B1 power of 200 Hz. […]

NC(N)=N/N=C/c1cccc(/C=N/N=C(N)N)c1 [compound 2a, phenyl-1,3-bis-guanylhydrazone]
reduction of GM130-covered areas in MNs (Golgi fragmentation) (GM130): substantially reverted
STD-NMR binding (VPS29-VPS35 heterodimer): interaction between the ligand and the protein complex
WL-NMR binding (VPS29-VPS35 heterodimer): binds to the protein complex
